Results published in ChEMBL document CHEMBL1124763, “Nucleoside conjugates. 11. Synthesis and antitumor activity of 1-beta-D-arabinofuranosylcytosine and cytidine conjugates of thioether lipids” (1990).

Key:
Type in all cases: functional
Mus musculus [1] = experiment: Increase of life span was determined against Ip implanted L1210 / ara-C lymphoid leukemia in mice at a dose of 167 mg/kg per day; settings: route intraperitoneal
Mus musculus [2] = experiment: Increase of life span was determined against Ip implanted L1210 / ara-C lymphoid leukemia in mice at a dose of 300 mg/kg per day; settings: route intraperitoneal
Mus musculus [3] = experiment: Increase of life span was determined against Ip implanted L1210 / ara-C lymphoid leukemia in mice at a dose of 60 mg/kg per day; settings: route intraperitoneal
Mus musculus [4] = experiment: Increase of life span was determined against Ip implanted L1210 / 0 lymphoid leukemia in mice at a dose of 100 mg/kg per day after treatment 1-5; settings: L1210/0, ip, route intraperitoneal
Mus musculus [5] = experiment: Increase of life span was determined against Ip implanted L1210 / 0 lymphoid leukemia in mice at a dose of 300 mg/kg per day after treatment 1; settings: L1210/0, ip, route intraperitoneal
Mus musculus [6] = experiment: Range of survival days for antitumor activity against Ip implanted L1210 / 0 lymphoid leukemia in mice at a dose of 60 mg/kg per day after treatment 1-5;range is 16-37; settings: route intraperitoneal
Mus musculus [7] = experiment: Increase of life span was determined against Ip implanted L1210 / 0 lymphoid leukemia in mice at a dose of 300 mg/kg per day after treatment 5; settings: L1210/0, ip, route intraperitoneal
Mus musculus [8] = experiment: Range of survival days for antitumor activity against Ip implanted L1210 / ara-C lymphoid leukemia in mice at a dose of 167 mg/kg per day; settings: route intraperitoneal
Mus musculus [9] = experiment: Range of survival days for antitumor activity against Ip implanted L1210 / ara-C lymphoid leukemia in mice at a dose of 300 mg/kg per day; settings: route intraperitoneal
Mus musculus [10] = experiment: Range of survival days for antitumor activity against Ip implanted L1210 / ara-C lymphoid leukemia in mice at a dose of 60 mg/kg per day; settings: route intraperitoneal
Mus musculus [11] = experiment: Increase of life span was determined against Ip implanted L1210 / 0 lymphoid leukemia in mice at a dose of 400 mg/kg per day after treatment 1; settings: L1210/0, ip, route intraperitoneal
Mus musculus [12] = experiment: Increase of life span was determined against Ip implanted L1210 / 0 lymphoid leukemia in mice at a dose of 400 mg/kg per day after treatment 5; settings: L1210/0, ip, route intraperitoneal
Mus musculus [13] = experiment: Increase of life span was determined against Ip implanted L1210 / 0 lymphoid leukemia in mice at a dose of 60 mg/kg per day after treatment 1-5; settings: L1210/0, ip, route intraperitoneal
Mus musculus [14] = experiment: Range of survival days for antitumor activity against Ip implanted L1210 / 0 lymphoid leukemia in mice at a dose of 100 mg/kg per day after treatment 1-5;range is 14->45; settings: route intraperitoneal
Mus musculus [15] = experiment: Range of survival days for antitumor activity against Ip implanted L1210 / 0 lymphoid leukemia in mice at a dose of 300 mg/kg per day after treatment 1;range is 18-30; settings: route intraperitoneal
Mus musculus [16] = experiment: Range of survival days for antitumor activity against Ip implanted L1210 / 0 lymphoid leukemia in mice at a dose of 400 mg/kg per day after treatment 1;range is 16->45; settings: route intraperitoneal
Mus musculus [17] = experiment: Survival time treated / survival time (T/C) for antitumor activity against Ip implanted L1210 / 0 lymphoid leukemia in mice at a dose of 300 mg/kg per day after treatment 1;25/7; settings: route intraperitoneal
Mus musculus [18] = experiment: Survival time treated / survival time (T/C) for antitumor activity against Ip implanted L1210 / 0 lymphoid leukemia in mice at a dose of 100 mg/kg per day after treatment 1-5;36.5/8; settings: route intraperitoneal
Mus musculus [19] = experiment: Survival time treated / survival time (T/C) for antitumor activity against Ip implanted L1210 / 0 lymphoid leukemia in mice at a dose of 300 mg/kg per day after treatment 5;17/8; settings: route intraperitoneal
Mus musculus [20] = experiment: Survival time treated / survival time (T/C) for antitumor activity against Ip implanted L1210 / 0 lymphoid leukemia in mice at a dose of 400 mg/kg per day after treatment 1;27.5/7; settings: route intraperitoneal
Mus musculus [21] = experiment: Survival time treated / survival time (T/C) for antitumor activity against Ip implanted L1210 / 0 lymphoid leukemia in mice at a dose of 400 mg/kg per day after treatment 5;16.5/8; settings: route intraperitoneal
Mus musculus [22] = experiment: Survival time treated / survival time (T/C) for antitumor activity against Ip implanted L1210 / 0 lymphoid leukemia in mice at a dose of 60 mg/kg per day after treatment 1-5;26.5/8; settings: route intraperitoneal
Mus musculus [23] = experiment: Survival time treated/survival time tested (T/C) for antitumor activity against Ip implanted L1210 / ara-C lymphoid leukemia in mice at a dose of 300 mg/kg per day; settings: route intraperitoneal
Mus musculus [24] = experiment: Survival time treated/survival time tested (T/C) for antitumor activity against Ip implanted L1210 / ara-C lymphoid leukemia in mice at a dose of 60 mg/kg per day; settings: route intraperitoneal
Mus musculus [25] = experiment: Survival time treated/survival time tested (T/C) for antitumor activity against Ip implanted L1210 / ara-C lymphoid leukemia in mice at a dose of 167 mg/kg per day; settings: route intraperitoneal
Mus musculus [26] = experiment: Range of survival days for antitumor activity against Ip implanted L1210 / 0 lymphoid leukemia in mice at a dose of 300 mg/kg per day after treatment 5;range is 15-21; settings: route intraperitoneal
Mus musculus [27] = experiment: Range of survival days for antitumor activity against Ip implanted L1210 / 0 lymphoid leukemia in mice at a dose of 400 mg/kg per day after treatment 5;[…]; settings: route intraperitoneal

Question: For CCCCCCCCCCCCCCCCSCC(COP(=O)(O)OP(=O)(O)OC[C@H]1OC(n2ccc(N)nc2=O)[C@@H](O)[C@@H]1O)OC(=O)CCCCCCCCCCCCCCC (mixture of isomers), which ILS at 167 mg/kg/day (Mus musculus [1]) is on record?
Answer: 310%

Question: And the ILS at 300 mg/kg/day (Mus musculus [2])?
Answer: > 400%

Question: And the ILS at 60 mg/kg/day (Mus musculus [3])?
Answer: > 356%

Question: And the ILS at 100 mg/kg/day (Mus musculus [4])?
Answer: 356%

Question: And the ILS at 300 mg/kg/day (Mus musculus [5])?
Answer: 257%

Question: And the “Range of survival days” value (Mus musculus [6])?
Answer: 16

Question: And the ILS at 300 mg/kg/day (Mus musculus [7])?
Answer: 113%

Question: What about the Range (Mus musculus [8]) of the same compound?
Answer: >7

Question: What about the Range (Mus musculus [9]) of the same compound?
Answer: >45

Question: And the Range (Mus musculus [10])?
Answer: >29

Question: And the ILS at 400 mg/kg/day (Mus musculus [11])?
Answer: 293%

Question: What about the ILS at 400 mg/kg/day (Mus musculus [12]) of the same compound?
Answer: 106%

Question: And the ILS at 60 mg/kg/day (Mus musculus [13])?
Answer: 231%

Question: And the “Range of survival days” value (Mus musculus [14])?
Answer: >14

Question: And the “Range of survival days” value (Mus musculus [15])?
Answer: 18

Question: What about the “Range of survival days” value (Mus musculus [16]) of the same compound?
Answer: >16

Question: And the T/C (Mus musculus [17])?
Answer: 25

Question: What about the T/C (Mus musculus [18]) of the same compound?
Answer: 36.5

Question: What about the T/C (Mus musculus [19]) of the same compound?
Answer: 17

Question: What about the T/C (Mus musculus [20]) of the same compound?
Answer: 27.5

Question: And the T/C (Mus musculus [21])?
Answer: 16.5

Question: What about the T/C (Mus musculus [22]) of the same compound?
Answer: 26.5

Question: What about the T/C (Mus musculus [23]) of the same compound?
Answer: >45

Question: What about the T/C (Mus musculus [24]) of the same compound?
Answer: >41

Question: What about the T/C (Mus musculus [25]) of the same compound?
Answer: 41

Question: What about the “Range of survival days” value (Mus musculus [26]) of the same compound?
Answer: 15

Question: And the “Range of survival days” value (Mus musculus [27])?
Answer: 15
